IC50 data for two compounds are collected here from ChEMBL document CHEMBL1145028, “Retroinverso analogue of the antiviral octapeptide C8 inhibits feline immunodeficiency virus in serum” (J Med Chem, 2003).

≈ marks a conversion by molar mass, not a printed value.

In test [1] the test system is Feline immunodeficiency virus. In words: Concentration required to inhibit feline immunodeficiency virus (FIV) replication in normal tissue culture medium. It counts as functional, organism-based.
For test [2], the system named is Feline immunodeficiency virus. In words: Concentration required to inhibit feline immunodeficiency virus (FIV) replication in 50% normal cat serum (NCS). Format: functional, organism-based.

For orientation: IC50 means the concentration needed to halve the response being measured. Read a low IC50 as inhibition by little substance. Consider `CC[C@@H](C)[C@@H](NC(C)=O)C(=O)N[C@H](Cc1c[nH]c2ccccc12)C(=O)NCC(=O)N[C@@H](C(=O)N[C@H](Cc1c[nH]c2ccccc12)C(=O)N[C@H](CC(=O)O)C(=O)N[C@H](CCC(=O)O)C(=O)N[C@H](Cc1c[nH]c2ccccc12)C(N)=O)C(C)C`, for which the IC50 in test [1] was determined as 0.63 µg/mL (≈ 0.557 µM); in test [2] it was 0.8 µg/mL (≈ 0.707 µM).
On the same counts, the results for Ac-WEDWVGWI-NH2 are 0.15 µg/mL and 5.21 µg/mL.
